According to PubChem BioAssay AID1963979 (Molecular Pharmacology Branch, DTP, NCI, 2024):
Blank lines part the entries; values can stand above or below the molecule they belong to.

System: 361931-004-R-J1-PDC multicell spheroid viability
Assay: Anticancer human tumor 361931-004-R-J1-PDC patient-derived colon adenocarcinoma cell line growth inhibition [PI3K]
Settings: for IC50: curve of first compound; for viability, T/C: stronger effect = lower value
In short: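 Multi-cell spheroids combine tumor cells with HUVEC and human MSCs, treated with targeted agents alone or with inavolisib, alpelisib, duvelisib or copanlisib. Concentrations fall in half-log steps from at or near clinical Cmax, or from 10 microM where Cmax is unknown; viability read-out.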

[1] = second compound 0.00316 µM, first compound 0.000316 µM
[2] = second compound 0.00316 µM, first compound 0.001 µM
[3] = second compound 0.00316 µM, first compound 0.00316 µM
[4] = second compound 0.00316 µM, first compound 0.01 µM
[5] = second compound 0.00316 µM, first compound 0.0316 µM
[6] = second compound 0.00316 µM, first compound 0.1 µM
[7] = second compound 0.01 µM, first compound 0.000316 µM
[8] = second compound 0.01 µM, first compound 0.001 µM
[9] = second compound 0.01 µM, first compound 0.00316 µM
[10] = second compound 0.01 µM, first compound 0.01 µM
[11] = second compound 0.01 µM, first compound 0.0316 µM
[12] = second compound 0.01 µM, first compound 0.1 µM
[13] = second compound 0.0316 µM, first compound 0.000316 µM
[14] = second compound 0.0316 µM, first compound 0.001 µM
[15] = second compound 0.0316 µM, first compound 0.00316 µM
[16] = second compound 0.0316 µM, first compound 0.01 µM
[17] = second compound 0.0316 µM, first compound 0.0316 µM
[18] = second compound 0.0316 µM, first compound 0.1 µM
[19] = second compound 0.1 µM, first compound 0.000316 µM
[20] = second compound 0.1 µM, first compound 0.001 µM
[21] = second compound 0.1 µM, first compound 0.00316 µM
[22] = second compound 0.1 µM, first compound 0.01 µM
[23] = second compound 0.1 µM, first compound 0.0316 µM
[24] = second compound 0.1 µM, first compound 0.1 µM
[25] = second compound 0.316 µM, first compound 0.000316 µM
[26] = second compound 0.316 µM, first compound 0.001 µM
[27] = second compound 0.316 µM, first compound 0.00316 µM
[28] = second compound 0.316 µM, first compound 0.01 µM
[29] = second compound 0.316 µM, first compound 0.0316 µM
[30] = second compound 0.316 µM, first compound 0.1 µM
[31] = second compound 1 µM, first compound 0.000316 µM
[32] = second compound 1 µM, first compound 0.001 µM
[33] = second compound 1 µM, first compound 0.00316 µM
[34] = second compound 1 µM, first compound 0.01 µM
[35] = second compound 1 µM, first compound 0.0316 µM
[36] = second compound 1 µM, first compound 0.1 µM
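Note: spheroids exposed to agents for seven days before readout.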

IC50 (second compound 0.00316 µM): > 100 nM | IC50 (second compound 0.01 µM): > 100 nM | IC50 (second compound 0.0316 µM): > 100 nM | IC50 (second compound 0.1 µM): > 100 nM | IC50 (second compound 0.316 µM): < 0.316 nM | IC50 (second compound 1 µM): < 0.316 nM
SMILES: CC(=O)c1c(C)c2cnc(Nc3ccc(N4CCNCC4)cn3)nc2n(C2CCCC2)c1=O + COc1c(OCCCN2CCOCC2)ccc2c3n(c(=NC(=O)c4cnc(N)nc4)nc12)CCN3
viability, T/C [1]: 99.6% | viability, T/C [2]: 98.4% | viability, T/C [3]: 99.8% | viability, T/C [4]: 97% | viability, T/C [5]: 101% | viability, T/C [6]: 89.2% | viability, T/C [7]: 101% | viability, T/C [8]: 98.8% | viability, T/C [9]: 103% | viability, T/C [10]: 91.5% | viability, T/C [11]: 95.4% | viability, T/C [12]: 83.4% | viability, T/C [13]: 93.3% | viability, T/C [14]: 89.3% | viability, T/C [15]: 93.3% | viability, T/C [16]: 87.4% | viability, T/C [17]: 83.8% | viability, T/C [18]: 62.9% | viability, T/C [19]: 84.1% | viability, T/C [20]: 69.7% | viability, T/C [21]: 73.7% | viability, T/C [22]: 72.8% | viability, T/C [23]: 67.9% | viability, T/C [24]: 53.1% | viability, T/C [25]: 50.7% | viability, T/C [26]: 45.7% | viability, T/C [27]: 42.3% | viability, T/C [28]: 41.8% | viability, T/C [29]: 49.6% | viability, T/C [30]: 38.1% | viability, T/C [31]: 23.1% | viability, T/C [32]: 17.9% | viability, T/C [33]: 16.4% | viability, T/C [34]: 19.7% | viability, T/C [35]: 21% | viability, T/C [36]: 15.2%

IC50 (second compound 0.00316 µM): > 100 nM | IC50 (second compound 0.01 µM): > 100 nM | IC50 (second compound 0.0316 µM): 78.3 nM | IC50 (second compound 0.1 µM): 51.8 nM | IC50 (second compound 0.316 µM): 4.51 nM | IC50 (second compound 1 µM): < 0.316 nM
SMILES: CC(C)n1nc(-c2ccc3oc(N)nc3c2)c2c(N)ncnc21 + COc1c(OCCCN2CCOCC2)ccc2c3n(c(=NC(=O)c4cnc(N)nc4)nc12)CCN3
viability, T/C [1]: 99.9% | viability, T/C [2]: 108% | viability, T/C [3]: 101% | viability, T/C [4]: 106% | viability, T/C [5]: 108% | viability, T/C [6]: 77.5% | viability, T/C [7]: 106% | viability, T/C [8]: 102% | viability, T/C [9]: 99.3% | viability, T/C [10]: 100% | viability, T/C [11]: 99.2% | viability, T/C [12]: 57.6% | viability, T/C [13]: 94.1% | viability, T/C [14]: 98.7% | viability, T/C [15]: 89.2% | viability, T/C [16]: 94.2% | viability, T/C [17]: 85.6% | viability, T/C [18]: 40.4% | viability, T/C [19]: 80.8% | viability, T/C [20]: 85.5% | viability, T/C [21]: 79% | viability, T/C [22]: 72.8% | viability, T/C [23]: 62.9% | viability, T/C [24]: 34.1% | viability, T/C [25]: 64.7% | viability, T/C [26]: 56.3% | viability, T/C [27]: 54.2% | viability, T/C [28]: 43.9% | viability, T/C [29]: 35.5% | viability, T/C [30]: 22.4% | viability, T/C [31]: 20.8% | viability, T/C [32]: 20.7% | viability, T/C [33]: 22.3% | viability, T/C [34]: 20.9% | viability, T/C [35]: 20.2% | viability, T/C [36]: 10.6%

IC50 (second compound 0.00316 µM): 4620 nM | IC50 (second compound 0.01 µM): 4730 nM | IC50 (second compound 0.0316 µM): 4480 nM | IC50 (second compound 0.1 µM): 1570 nM | IC50 (second compound 0.316 µM): 48.7 nM | IC50 (second compound 1 µM): < 31.6 nM
SMILES: CCCS(=O)(=O)Nc1ccc(F)c(C(=O)c2c[nH]c3ncc(-c4ccc(Cl)cc4)cc23)c1F + COc1c(OCCCN2CCOCC2)ccc2c3n(c(=NC(=O)c4cnc(N)nc4)nc12)CCN3
viability, T/C [5]: 102% | viability, T/C [6]: 104% | viability, T/C (second compound 0.00316 µM, first compound 0.316 µM): 93.7% | viability, T/C (second compound 0.00316 µM, first compound 1 µM): 89.8% | viability, T/C (second compound 0.00316 µM, first compound 3.16 µM): 72.3% | viability, T/C (second compound 0.00316 µM, first compound 10 µM): 7.97% | viability, T/C [11]: 107% | viability, T/C [12]: 93.1% | viability, T/C (second compound 0.01 µM, first compound 0.316 µM): 94% | viability, T/C (second compound 0.01 µM, first compound 1 µM): 88.1% | viability, T/C (second compound 0.01 µM, first compound 3.16 µM): 75.6% | viability, T/C (second compound 0.01 µM, first compound 10 µM): 6.49% | viability, T/C [17]: 93% | viability, T/C [18]: 87.3% | viability, T/C (second compound 0.0316 µM, first compound 0.316 µM): 77.5% | viability, T/C (second compound 0.0316 µM, first compound 1 µM): 83.3% | viability, T/C (second compound 0.0316 µM, first compound 3.16 µM): 69.4% | viability, T/C (second compound 0.0316 µM, first compound 10 µM): 6.55% | viability, T/C [23]: 89.1% | viability, T/C [24]: 72.5% | viability, T/C (second compound 0.1 µM, first compound 0.316 µM): 67.4% | viability, T/C (second compound 0.1 µM, first compound 1 µM): 53% | viability, T/C (second compound 0.1 µM, first compound 3.16 µM): 47.6% | viability, T/C (second compound 0.1 µM, first compound 10 µM): 5.33% | viability, T/C [29]: 54.1% | viability, T/C [30]: 45.5% | viability, T/C (second compound 0.316 µM, first compound 0.316 µM): 28.9% | viability, T/C (second compound 0.316 µM, first compound 1 µM): 27.4% | viability, T/C (second compound 0.316 µM, first compound 3.16 µM): 17.8% | viability, T/C (second compound 0.316 µM, first compound 10 µM): 3.29% | viability, T/C [35]: 20.6% | viability, T/C [36]: 21.3% | viability, T/C (second compound 1 µM, first compound 0.316 µM): 14% | viability, T/C (second compound 1 µM, first compound 1 µM): 9.73% | viability, T/C (second compound 1 µM, first compound 3.16 µM): 7.59% | viability, T/C (second compound 1 µM, first compound 10 µM): 2.7%
